Like-named read-outs stand apart in the source and are kept apart here.
Test system: HCMV
Type: cell-based
Procedure: In example herpesvirus PRM assay methods shown herein, cell pellets were lysed in 2% SDS, 100 mM NaCl, 0.5 mM EDTA, 50 mM Tris, pH 8.2, and 50 μg of protein was reduced and alkylated with 25 mM TCEP and 50 mM CAM respectively for 20 min at 70° C. Proteins were then precipitated via methanol chloroform precipitation (Wessel & Flugg, Anal Biochem. 138(1):141-143, 1984), resuspended in 50 mM HEPES, pH 8.2 and digested overnight with trypsin (50:1 protein:enzyme w/w ratio). Digested peptides were desalted by SDB-RPS StageTip as previously described (Lum et al., Cell Syst., 7(6):[…], 2018; Greco et al., Methods Mol Biol 1410:39-63, 2016; Federspiel & Cristea, Methods Mol Biol., 1977:115-143, 2019).
Peptides (1.0 μg on column) were analyzed by LC-MS/MS using a Dionex Ultimate 3000 UHPLC coupled online to an EASYSpray ion source and a Q Exactive HF. Peptides were separated on an EASYSpray C18 column (75 μm×25 cm) heated to 50° C. using a linear gradient of 5% B to 32% B over 60 min at a flow rate of 250 nL/min and were ionized at 1.7 kv. Mobile phase A consisted of 0.1% FA in H2O and mobile phase B consisted of 0.1% FA, 2.9% H2O in ACN.
The PRM method was controlled by a peptide inclusion list with retention time windows of 6 min for selected precursor ions.
The PRM assay was developed and analyzed using the open-source software Skyline (Maclean et al., Bioinformatics 26(7):966-968, 2010). Summed area under the curve of 3-4 transitions per peptide was used for quantitation. Targeted peptides were normalized to host protein loading control peptides. Peptide values for each sample were scaled to the average of each peptide across all runs. The average of multiple peptides was used as the inferred value for the protein measurement when more than one peptide was quantified (Federspiel et al., PLoS Biol. 17(9):e3000437. Doi: 10.1371/journal.pbio.3000437). PRM quantitation data were graphed using the Python Seaborn and Matplotlib libraries.
MRC5 primary human fibroblasts (HFs) (ATCC CCL-171) were used as the model system for HSV-1 and HCMV infections and were cultured in complete growth medium (DMEM supplemented with 10% fetal bovine serum and 1% penicillin-streptomycin antibiotics) at 37° C. and 5% CO2. iSLK.219 cells harboring latent KSHV (a gift from Dr. Britt Glaunsinger, University of California, Berkeley) were grown in complete growth medium supplemented with 500 μg/ml hygromycin (ThermoFisher Scientific, 10687010) at 37° C. and 5% CO2. All cells were used for experiments within a maximum of 10 passages.
Wild type HSV-1 strain 17+ (a gift from Beate Sodeik, Hannover Medical School, Hannover, Germany) was propagated as previously described (Diner et al., 2015). Briefly, PO stocks were generated by electroporating pBAC-HSV-1 into U-2 OS cells. […] In a similar manner, wild type HCMV strain AD169 was produced from BAC electroporation into HFs and working stocks were propagated by infecting HFs at a low level. In both cases, cell-associated virus was released by sonication, combined with supernatant virus, then concentrated by ultracentrifugation (20,000 rpm, 2 hours, 4° C. with SW28 swinging bucket rotor [Beckman Coulter]) over a 10% ficoll (HSV-1) or 20% sorbitol (HCMV) cushion. Virus stock titers were determined by plaque assay for HSV-1 or tissue culture infectious dose (TCID50) for HCMV and infections were performed at a multiplicity of infection (MOI) of 3.
12 hours prior to virus infection or reactivation, cells were treated with either the small molecule drug or DMSO/PBS control at an equivalent volume. […] For infection cycles lasting longer than 24 hours, small molecule drugs were re-added to the cell culture medium every 24 hours. Upon collection, cells were rinsed with PBS, scraped into a microcentrifuge tube, pelleted by centrifugation, and rinsed again with PBS.

Nc1c(S(=O)(=O)c2ccccc2)c2nc3ccccc3nc2n1-c1ccc(F)cc1 [CAY10602]
GO (P16750) protein level (timepoint 72, L): 0.05989 | IR11 (P16809) protein level (timepoint 72, L): 0.4344 | MCP (P16729) protein level (timepoint 72, L): 0.02624 | SCP (Q7M6N6) protein level (timepoint 72, L): 0.015 | TRM2 (P16792) protein level (timepoint 72, L): 0.0795 | UL22A (P16845) protein level (timepoint 72, L): 0.215 | UL25 (P16761) protein level (timepoint 72, L): 0.096 | UL29 (P16764) protein level (timepoint 72, L): 0.506 | UL30 (P16765) protein level (timepoint 72, L): 0.1431 | UL31 (P16848) protein level (timepoint 72, L): 0.1447 | UL43 (P16781) protein level (timepoint 72, L): 0.03176 | UL52 (P16793) protein level (timepoint 72, L): 0.1191 | UL76 (P16725) protein level (timepoint 72, L): 0.03192 | UL80 (P16753) protein level (timepoint 72, L): 0.06052 | UL82 (P06726) protein level (timepoint 72, L): 0.1042 | UL87 (P16730) protein level (timepoint 72, L): 0.09029 | UL88 (P16731) protein level (timepoint 72, L): 0.1686 | UL94 (P16800) protein level (timepoint 72, L): 0.1145 | UL99 (P13200) protein level (timepoint 72, L): 0.05513 | UL103 (P16734) protein level (timepoint 72, L): 0.09275 | UL117 (P16770) protein level (timepoint 72, L): 0.3151 | gH (P12824) protein level (timepoint 72, L): 0.1032 | gL (P16832) protein level (timepoint 72, L): 0.08246 | gM (P16733) protein level (timepoint 72, L): 0.06242 | gN (P16795) protein level (timepoint 72, L): 0.1122 | IR10 (P16808) protein level (timepoint 72, LL): 0.03558 | IR12 (P16810) protein level (timepoint 72, LL): 0.4497 | TRM3 (P16732) protein level (timepoint 72, LL): 0.03658 | TRX1 (P16783) protein level (timepoint 72, LL): 0.02099 | TRX2 (P16728) protein level (timepoint 72, LL): 0.02193 | UL24 (P16760) protein level (timepoint 72, LL): 0.1166 | UL40 (P16780) protein level (timepoint 72, LL): 0.4727 | UL47 (P16784) protein level (timepoint 72, LL): 0.06008 | UL49 (P16786) protein level (timepoint 72, LL): 0.1643 | UL69 (P16749) protein level (timepoint 72, LL): 0.2062 | UL70 (P17149) protein level (timepoint 72, LL): 0.4194 | UL83 (P06725) protein level (timepoint 72, LL): 0.02048 | UL132 (P69338) protein level (timepoint 72, LL): 0.1287 | US15 (P09718) protein level (timepoint 72, LL): 0.4326 | CVC2 (P16726) protein level (timepoint 96, DE): 0.1714 | DBP (P17147) protein level (timepoint 96, DE): 0.7941 | HELI (P16736) protein level (timepoint 96, DE): 0.8017 | IR01 (P09710) protein level (timepoint 96, DE): 0.4575 | NEC1 (P16794) protein level (timepoint 96, DE): 0.0869 | NEC2 (P16791) protein level (timepoint 96, DE): 0.2886 | RIR1 (P16782) protein level (timepoint 96, DE): 0.2098 | TRM1 (P16724) protein level (timepoint 96, DE): 0.3134 | UL4 (P17146) protein level (timepoint 96, DE): 0.2128 | UL26 (P16762) protein level (timepoint 96, DE): 0.2828 | UL32 (P08318) protein level (timepoint 96, DE): 0.1168 | UL34 (P16812) protein level (timepoint 96, DE): 0.2231 | UL35 (P16766) protein level (timepoint 96, DE): 0.1252 | UL38 (P16779) protein level (timepoint 96, DE): 0.6672 | UL44 (P16790) protein level (timepoint 96, DE): 0.176 | UL48 (P16785) protein level (timepoint 96, DE): 0.2807 | UL54 (P08546) protein level (timepoint 96, DE): 0.9075 | UL71 (P16823) protein level (timepoint 96, DE): 0.4754 | UL78 (P16751) protein level (timepoint 96, DE): 0.4235 | UL84 (P16727) protein level (timepoint 96, DE): 0.2328 | UL95 (P16801) protein level (timepoint 96, DE): 0.312 | UL96 (P16787) protein level (timepoint 96, DE): 0.4112 | UL97 (P16788) protein level (timepoint 96, DE): 0.3037 | UL98 (P16789) protein level (timepoint 96, DE): 0.4674 | UL102 (P16827) protein level (timepoint 96, DE): 0.9006 | UL104 (P16735) protein level (timepoint 96, DE): 0.3067 | UL112/UL113 (P17151) protein level (timepoint 96, DE): 0.5114 | UL114 (P16769) protein level (timepoint 96, DE): 0.7883 | UL119/UL118 (P16739) protein level (timepoint 96, DE): 0.6695 | UL128 (P16837) protein level (timepoint 96, DE): 0.1937 | US8 (P09730) protein level (timepoint 96, DE): 0.6801 | US9 (P09729) protein level (timepoint 96, DE): 0.7084 | US12 (P09721) protein level (timepoint 96, DE): 0.4505 | US13 (P09720) protein level (timepoint 96, DE): 0.8895 | US14 (P09719) protein level (timepoint 96, DE): 0.3447 | US18 (P69334) protein level (timepoint 96, DE): 0.9283 | US22 (P09722) protein level (timepoint 96, DE): 0.6231 | US23 (P09701) protein level (timepoint 96, DE): 0.5304 | US24 (P09700) protein level (timepoint 96, DE): 0.485 | US34 (P09709) protein level (timepoint 96, DE): 0.2125 | gB (P06473) protein level (timepoint 96, DE): 0.285 | IRS1 (P09715) protein level (timepoint 96, IE): 0.7821 | TRS1 (P09695) protein level (timepoint 96, IE): 0.7146 | UL13 (P16755) protein level (timepoint 96, IE): 0.2986 | UL36 (P16767) protein level (timepoint 96, IE): 0.5836 | UL37 (P16778) protein level (timepoint 96, IE): 0.8017 | UL122 (P19893) protein level (timepoint 96, IE): 0.1642 | UL123 (P13202) protein level (timepoint 96, IE): 0.4758 | CVC1 (P16799) protein level (timepoint 96, L): 0.2252 | GO (P16750) protein level (timepoint 96, L): 0.2443 | IR11 (P16809) protein level (timepoint 96, L): 0.9075 | MCP (P16729) protein level (timepoint 96, L): 0.1482 | SCP (Q7M6N6) protein level (timepoint 96, L): 0.1246 | TRM2 (P16792) protein level (timepoint 96, L): 0.19 | UL22A (P16845) protein level (timepoint 96, L): 0.3485 | UL25 (P16761) protein level (timepoint 96, L): 0.2353 | UL29 (P16764) protein level (timepoint 96, L): 0.6674 | UL30 (P16765) protein level (timepoint 96, L): 0.2355 | UL31 (P16848) protein level (timepoint 96, L): 0.2462 | UL43 (P16781) protein level (timepoint 96, L): 0.05313 | UL52 (P16793) protein level (timepoint 96, L): 0.3224 | UL76 (P16725) protein level (timepoint 96, L): 0.1513 | UL79 (P16752) protein level (timepoint 96, L): 0.3299 | UL80 (P16753) protein level (timepoint 96, L): 0.2674 | UL82 (P06726) protein level (timepoint 96, L): 0.2566 | UL87 (P16730) protein level (timepoint 96, L): 0.2646 | UL88 (P16731) protein level (timepoint 96, L): 0.3926 | UL94 (P16800) protein level (timepoint 96, L): 0.2776 | UL99 (P13200) protein level (timepoint 96, L): 0.1753 | UL103 (P16734) protein level (timepoint 96, L): 0.2489
